Like-named read-outs stand apart in the source and are kept apart here.
Legend:
[1] = tested on: HCMV Strain AD169 in MRC-5 cells; test: CMV cell assay; assay type: cell-based
Protocol: MRCS and Vero cells were obtained from ATCC and were maintained at 37° C./5% CO2/90% relative humidity in Minimal Essential Medium with 10% fetal bovine serum, […], 100 units/mL penicillin and 100 ug/mL streptomycin. Assay plates were prepared by dispensing compounds dissolved in DMSO into wells of 384 well collagen-coated plates using an ECHO acoustic dispenser. Each test compound was tested in a 10-point, serial 3-fold dilution. Controls included uninfected cells and infected cells treated only with DMSO. Assays were initiated by mixing selected cells, in suspension, with virus, and dispensing 50 μl/well infected cells to pre-plated compounds. Plates were incubated at 37° C./5% CO2/90% relative humidity for ˜72 hours to permit genomic replication, and infected cells were lysed by the addition of an equal volume of lysis buffer (10 mM Tris-HCl, pH8, 50 mM KCl, 2 mM MgCl2, 0.45% NP-40, 0.45% Tween-20, and 100 μg/mL proteinase K). An aliquot of the lysate was then transferred to a 384-well PCR plate and incubated at 56° C. for 1 hour, and then at 95° C. for 10 minutes. Levels of a viral gene were measured in 10 ul qPCR assays using TaqMan® Gene Expression Master Mix (Applied Biosystems) and an 7900HT Fast Real-Time PCR System with 384-Well Block Module. 7-point, serial 10-fold dilutions of a plasmid standard were run on each plate to generate a standard curve, and genome copies numbers were calculated by plotting experimental Ct onto linear regression of the standard curve. Compound effects on viral genome copy number were normalized to the window defined by the controls. Calculated % effects were fit using a 4-parameter algorithm, and EC50 was reported.
HCMV: Strain AD169 was assayed in MRC-5 cells and was used at 0.05-0.1 pfu/cell. The assays were performed in either growth media or in the same media with 50% fetal bovine serum. Primer-probe set was Thermo Fisher Assay ID=AIFATFK. HSV-1: Strain F was assayed in Vero or MRCS cells and was used at 0.0005-0.004 pfu/cell in growth medium. Primer-probe set was Thermo Fisher Assay ID=AIBJZIB. HSV-2: Strain G was assayed in Vero or MRCS cells and was used at 0.004-0.4 pfu/cell in growth medium. Primer-probe set was Thermo Fisher Assay ID=AICSXOJ.

[2] = biological target: T1, varicella zoster virus DNA polymerase (Varicella-zoster virus, UniProt P09252); test: VZV polymerase assay (AlphaLISA); assay type: biochemical; settings: polymerase assay of Example 27, VZV polymerase 0.4 nM
T1 construct: made in house; host or cells: SF21 insect cells (baculovirus vector)
T1 sequence (P09252 whole entry): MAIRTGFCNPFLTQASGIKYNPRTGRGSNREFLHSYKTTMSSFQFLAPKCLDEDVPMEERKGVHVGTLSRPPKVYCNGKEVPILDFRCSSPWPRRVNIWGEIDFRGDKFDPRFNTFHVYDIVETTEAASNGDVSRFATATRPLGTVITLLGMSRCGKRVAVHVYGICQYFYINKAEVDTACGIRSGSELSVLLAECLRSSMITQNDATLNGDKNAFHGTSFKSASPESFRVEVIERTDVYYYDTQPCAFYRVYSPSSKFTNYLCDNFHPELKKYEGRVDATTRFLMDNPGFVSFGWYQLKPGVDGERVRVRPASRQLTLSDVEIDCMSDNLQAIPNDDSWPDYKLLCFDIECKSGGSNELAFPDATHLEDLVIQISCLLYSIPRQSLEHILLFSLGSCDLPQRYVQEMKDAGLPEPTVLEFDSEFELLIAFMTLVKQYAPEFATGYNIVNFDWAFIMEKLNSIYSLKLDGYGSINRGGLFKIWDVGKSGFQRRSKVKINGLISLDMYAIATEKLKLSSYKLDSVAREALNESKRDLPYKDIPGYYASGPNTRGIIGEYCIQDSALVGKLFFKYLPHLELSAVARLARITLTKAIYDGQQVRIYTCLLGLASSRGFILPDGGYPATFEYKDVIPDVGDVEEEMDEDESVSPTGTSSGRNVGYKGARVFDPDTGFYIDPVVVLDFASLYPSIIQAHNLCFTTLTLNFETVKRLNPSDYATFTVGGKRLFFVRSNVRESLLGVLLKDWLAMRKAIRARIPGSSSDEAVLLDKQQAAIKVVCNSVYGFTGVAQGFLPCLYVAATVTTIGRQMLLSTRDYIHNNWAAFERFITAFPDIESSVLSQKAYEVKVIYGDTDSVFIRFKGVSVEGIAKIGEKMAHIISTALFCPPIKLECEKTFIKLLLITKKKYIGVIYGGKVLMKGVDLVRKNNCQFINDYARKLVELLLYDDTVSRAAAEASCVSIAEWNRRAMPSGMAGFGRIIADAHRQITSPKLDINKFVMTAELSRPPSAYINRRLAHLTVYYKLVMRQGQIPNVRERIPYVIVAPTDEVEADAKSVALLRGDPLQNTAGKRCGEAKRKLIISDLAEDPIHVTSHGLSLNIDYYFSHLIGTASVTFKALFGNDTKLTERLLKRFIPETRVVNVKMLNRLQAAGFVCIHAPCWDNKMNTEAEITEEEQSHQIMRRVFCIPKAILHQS
Protocol: (§1) CMV and VZV Polymerase Assays
(§2) Human cytomegalovirus and varicella zoster virus DNA polymerases were expressed via baculovirus vector in SF21 cells and purified. Heterodimeric nucleic acid substrate used in the herpesvirus polymerase reactions were generated by annealing a 59-mer template to a 17-mer digoxigenin-labeled primer. Polymerase (HCMV final concentration of 0.2 nM; VZV final concentration of 0.4 nM) was combined with an inhibitor compound or DMSO in assay buffer (10 mM HEPES, pH 7.5, 25 mM KCl, 25 mM NaCl, 5 mM MgCl2, 5% glycerol, 0.67 mg/mL bovine serum albumin, and 1 mM tris(2-carboxyethyl)phosphine)), and this mixture was pre-incubated for 30 minutes at room temperature in 384-well microtiter plates. The polymerization reaction was initiated by the addition of template/primer substrate (final concentration: 1.6 nM) and dNTPs (final concentration: 24 nM dCTP, 24 nMdGTP, 16 nM dATP, 16 nM dTTP, and 0.8 nM biotin-dUTP). After a 60 minute incubation period at 37° C., the reactions were terminated using quench buffer (25 mM HEPES pH 7.5, 100 mM NaCl, 0.25% Tween-20, 12 mM EDTA, and 1 mg/mL bovine serum albumin). Incorporation of biotinylated UTP was detected with 2.5-5 μg/mL anti-DIG AlphaLISA acceptor beads and 5-10 μg/mL streptavidin AlphaLISA donor beads (PerkinElmer). Compound effects were normalized to the window defined by the controls (DMSO only and pre-quenched wells) and were fit using a 4-parameter algorithm to report an IC50.

[3] = biological target: T2, Human cytomegalovirus DNA polymerase (Human cytomegalovirus, UniProt P08546); test: CMV polymerase assay (AlphaLISA); assay type: biochemical; settings: polymerase assay of Example 27, HCMV polymerase 0.2 nM
T2 construct: made in house; host or cells: SF21 insect cells (baculovirus vector)
T2 sequence (P08546 whole entry): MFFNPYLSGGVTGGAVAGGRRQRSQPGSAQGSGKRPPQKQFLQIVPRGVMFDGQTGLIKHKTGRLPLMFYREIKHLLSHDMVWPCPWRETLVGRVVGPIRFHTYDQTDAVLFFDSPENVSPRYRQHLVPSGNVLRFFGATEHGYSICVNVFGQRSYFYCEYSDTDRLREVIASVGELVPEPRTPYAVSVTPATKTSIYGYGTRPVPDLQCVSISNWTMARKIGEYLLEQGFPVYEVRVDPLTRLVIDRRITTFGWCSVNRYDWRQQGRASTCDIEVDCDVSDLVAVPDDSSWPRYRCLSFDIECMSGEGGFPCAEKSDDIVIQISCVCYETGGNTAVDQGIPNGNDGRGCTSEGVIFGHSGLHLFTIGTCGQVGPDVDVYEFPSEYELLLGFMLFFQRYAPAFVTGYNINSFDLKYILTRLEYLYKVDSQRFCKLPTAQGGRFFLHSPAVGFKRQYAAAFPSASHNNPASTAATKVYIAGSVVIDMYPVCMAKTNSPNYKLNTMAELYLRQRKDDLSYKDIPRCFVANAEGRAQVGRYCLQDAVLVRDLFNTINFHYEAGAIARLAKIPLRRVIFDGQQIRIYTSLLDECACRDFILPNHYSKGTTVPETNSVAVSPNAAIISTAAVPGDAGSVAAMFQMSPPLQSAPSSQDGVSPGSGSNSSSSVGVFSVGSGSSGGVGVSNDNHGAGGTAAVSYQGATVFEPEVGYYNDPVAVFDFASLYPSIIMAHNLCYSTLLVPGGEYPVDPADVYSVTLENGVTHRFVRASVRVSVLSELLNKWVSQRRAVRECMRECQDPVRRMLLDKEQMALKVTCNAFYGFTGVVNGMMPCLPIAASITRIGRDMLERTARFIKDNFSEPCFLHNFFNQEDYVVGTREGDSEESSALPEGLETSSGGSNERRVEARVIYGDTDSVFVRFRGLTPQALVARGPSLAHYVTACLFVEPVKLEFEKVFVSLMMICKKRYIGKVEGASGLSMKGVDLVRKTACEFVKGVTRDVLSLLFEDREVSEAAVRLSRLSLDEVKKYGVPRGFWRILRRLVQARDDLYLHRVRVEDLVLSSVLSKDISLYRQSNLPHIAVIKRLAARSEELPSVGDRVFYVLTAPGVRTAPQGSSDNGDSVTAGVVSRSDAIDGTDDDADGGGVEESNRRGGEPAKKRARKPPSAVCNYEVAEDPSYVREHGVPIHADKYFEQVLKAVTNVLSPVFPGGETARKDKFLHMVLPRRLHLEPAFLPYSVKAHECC
Protocol: as §1, §2

[4] = tested on: HSV-2, strain G in Vero cells; test: HSV CPE assay, HSV-2; assay type: cell-based
Protocol: (§3) Vero cells were maintained at 37° C./5% CO2/90% relative humidity in Dulbecco's Modified Eagle's Medium with 10% fetal bovine serum, […], 100 units/mL penicillin and 100 ug/mL streptomycin. For this assay, Vero cells (maintained at 37° C./5% CO2/90% relative humidity in Dulbecco's Modified Eagle's Medium with 10% fetal bovine serum, […], 100 units/mL penicillin and 100 μg/mL streptomycin) were seeded in 96-well microtiter plates and incubated for about 15 hours. They were then infected with HSV-1, strain F, or with HSV-2, strain G, at a multiplicity of infection known to result in 85-95% loss of cell viability during the assays, in the same media with 2% fetal bovine serum. Test compounds were dissolved in DMSO, and 6 point serial 10-fold dilutions in DMSO were prepared. Test compounds were added to infected cells, and the plates were incubated at 37° C./5% CO2/90% relative humidity for 5 days. Each plate contains cell control wells (cells only), virus control wells (cells plus virus), drug colorimetric control wells (drug only), background control wells (media only) and experimental wells (drug plus cells plus virus). Cytoprotection was assessed by the addition of Celltiter®96 Reagent (Promega, Madison, Wis.), according to manufacturer's recommendations. % cytopathic effect (CPE) reduction was calculated and IC50 (concentration inhibition virus replication by 50%) was reported.

[5] = tested on: HSV-1, strain F in Vero cells; test: HSV CPE assay, HSV-1; assay type: cell-based
Protocol: as §3

[6] = Human betaherpesvirus 5, AD169, MRC5, footnote b: assay described in Example 25, read-out: CMV Cell^b (EC50)
[7] = Human alphaherpesvirus 2, 120 h, unstarred values: CPE assay of Example 25, Vero cells, 5 days, read-out: HSV2 Cell^b CPE(EC50)
[8] = Human alphaherpesvirus 1, 120 h, unstarred values: CPE assay of Example 25, Vero cells, 5 days, read-out: HSV1 Cell^b (EC50)
[9] = Human betaherpesvirus 5, AD169, MRC5, read-out: CMV Cell^b (EC50), footnote b: assay described in Example 25
[10] = Human alphaherpesvirus 2, Vero, 120 h, read-out: HSV2 Cell^b CPE(EC50), unstarred values: CPE assay of Example 25, Vero cells, 5 days
[11] = Human alphaherpesvirus 1, Vero, 120 h, read-out: HSV1 Cell^b (EC50), unstarred values: CPE assay of Example 25, Vero cells, 5 days
[12] = read-out: HSV1 Cell^b (EC50), unstarred values: CPE assay of Example 25, Vero cells, 5 days

| Structure (SMILES) | EC50 [1, 6] [nM] | IC50 ([2]; read-out: VZV^a (IC50)) [nM] | IC50 ([3]; read-out: CMV^a (IC50)) [nM] | EC50 [4, 7] [nM] | EC50 [5, 8] [nM] | also measured |
| --- | --- | --- | --- | --- | --- | --- |
| Cn1nc(C(=O)NCc2ccc(Cl)cc2)c2c3c(ccc21)C(N1CCOCC1)CC3 (single isomer, unassigned) [Compound 16] | 970 | 38 | 260 | 1600 | 1500 |  |
| Cc1c(N2CCn3nncc3C2)ccc2c(C(=O)NCc3ccc(C#N)cc3)nn(CCC#N)c12 [Compound 1] |  |  |  |  |  | EC50 [1, 9]: 120 nM; IC50 ([2]; VZV^a (IC50)): 13 nM; IC50 ([3]; CMV^a (IC50)): 53 nM; EC50 [4, 10]: 2500 nM; EC50 [5, 11]: 1600 nM |
| Cc1c(N2CCn3nncc3C2)ccc2c(C(=O)NCc3ccc(Cl)cc3)nn(C3CCNC3)c12 (stereo not shown) [Compound 4] |  |  |  |  |  | EC50 [1, 9]: 85 nM; IC50 ([2]; VZV^a (IC50)): 16 nM; IC50 ([3]; CMV^a (IC50)): 37 nM; EC50 [4, 10]: 2100 nM; EC50 [5, 12]: 3100 nM |
| Cc1c(N2CCn3nncc3C2)ccc2c(C(=O)NCc3ccc(Cl)cc3)nn(CCOCCO)c12 [Compound 5] |  |  |  |  |  | EC50 [1, 9]: 97 nM; IC50 ([2]; VZV^a (IC50)): 12 nM; IC50 ([3]; CMV^a (IC50)): 33 nM; EC50 [4, 10]: 610 nM; EC50 [5, 11]: > 40000 nM |
| Cc1c(N2CCn3nncc3C2)ccc2c(C(=O)NCc3ccc(Cl)cc3)nn(C3CCNC3)c12 (stereo not shown) [Compound 6] |  |  |  |  |  | EC50 ([1]; read-out: CMV Cell^b (EC50), footnote b: assay described in Example 25): 110 nM; IC50 ([2]; VZV^a (IC50)): 19 nM; IC50 ([3]; CMV^a (IC50)): 45 nM; EC50 ([4]; read-out: HSV2 Cell^b CPE(EC50), unstarred values: CPE assay of Example 25, Vero cells, 5 days): 3700 nM; EC50 [5, 12]: > 40000 nM |
| O=C(NCc1ccc(Cl)cc1)c1n[nH]c2c(Cl)c(N3CCn4nncc4C3)ccc12 [Compound 7] | 120 | 5.1 | 22 | 200 | 120 |  |
| Cc1cc(CN2CCCS(=O)(=O)CC2)cc2c(C(=O)NCc3ccc(C#N)cc3)nn(CCC#N)c12 [Compound 8] |  |  |  |  |  | EC50 [1, 9]: 150 nM; IC50 ([2]; VZV^a (IC50)): 62 nM; IC50 ([3]; CMV^a (IC50)): 103 nM; EC50 [4, 10]: 22000 nM; EC50 [5, 11]: 6400 nM |
| Cn1nncc1COc1ccc2c(C(=O)NCc3ccc(Cl)cc3)nn(C)c2c1Cl [Compound 10] | 460 | 12 | 41 | 590 | 250 |  |
| N#Cc1c(N2CCn3nncc3C2)ccc2c(C(=O)NCc3ccc(Cl)cc3)n[nH]c12 [Compound 11] | 93 | 3.7 | 23 | 700 | 480 |  |
| Cc1nnn(C)c1COc1ccc2c(C(=O)NCc3ccc(Cl)cc3)nn(C[C@@H](C)O)c2c1F [Compound 12] |  |  |  |  |  | EC50 [1, 9]: 300 nM; IC50 ([2]; VZV^a (IC50)): 1.6 nM; IC50 ([3]; CMV^a (IC50)): 7.1 nM |
| Cc1c(NCc2cnnn2C)ccc2c(C(=O)NCc3ccc(Cl)cc3)n[nH]c12 [Compound 13] | 320 | 5 | 17 |  |  |  |
| Cn1nc(C(=O)NCc2ccc(Cl)cc2)c2ccc(N3CCn4nncc4C3)c(Br)c21 [Compound 15] | 930 | 14 | 25 | 930 | 850 |  |
| Cc1c(CN2CCCS(=O)(=O)CC2)ccc2c1c(C(=O)NCc1ccc(Cl)cc1)nn2C [Compound 18] | 2900 | 160 | 120 | 6100 | 6300 |  |
| Cc1c(CN2CCOCC2)cc(C)c2c1c(C(=O)NCc1ccc(Cl)cc1)nn2C [Compound 19] | 6100 | 66 | 280 | 5300 | 1800 |  |
| Cn1nc(C(=O)NCc2ccc(Cl)cc2)c2c(O)c(CN3CCOCC3)ccc21 [Compound 20] | > 9900 | 66 | 390 | > 40000 | > 40000 |  |
| Cn1nc(C(=O)NCc2ccc(Cl)cc2)c2c(F)c(CN3CCOCC3)ccc21 [Compound 21] | 7200 | 180 | 480 | 3600 | 2200 |  |
| Cc1c(CN2CCOCC2)cc2c(C(=O)NCc3ccc(Cl)cc3)nn(C)c2c1C [Compound 22] | 4300 |  | 580 |  |  |  |
| Cn1nc(C(=O)NCc2ccc([N+](=O)[O-])cc2)c2cc(CN3CCOCC3)ccc21 [Compound 23] | 12000 | 180 | 990 |  |  |  |
| Cn1nc(C(=O)NCc2ccc(Br)cc2)c2cc(CN3CCOCC3)ccc21 [Compound 24] | > 9900 | 220 | 920 |  |  |  |
| Cn1nc(C(=O)NCc2ccc(F)cc2)c2cc(CN3CCOCC3)ccc21 [Compound 26] |  | 740 | 3300 |  |  |  |
| Cn1nc(C(=O)NCc2ccc(Cl)cc2)c2cnc(N3CCn4nncc4C3)cc21 [Compound 28] | 7500 | 250 | 810 |  |  |  |
| Cn1nc(C(=O)NCc2ccc(Cl)cc2)c2cc(CN3CCOCC3)ncc21 [Compound 29] |  | 1600 | 2400 |  |  |  |
| Cn1nc(C(=O)NCc2ccc(Cl)cc2)c2ccc(N3CCn4nncc4C3)nc21 [Compound 30] |  | 3000 | 1600 |  |  |  |
| Cn1cc(C(=O)NCc2ccc(Cl)cc2)c2ccc(N3CCn4nncc4C3)cc21 [Compound 31] |  | 120 | 190 |  |  |  |
| Cc1c(N2CCn3nncc3C2)ccc2c(C(=O)NCc3ccc(C#N)cc3)nn(C[C@H](C)NC(=O)C(C)C)c12 [Compound 32] |  |  |  |  |  | EC50 [1, 9]: 60 nM; IC50 ([2]; VZV^a (IC50)): 1.8 nM; IC50 ([3]; CMV^a (IC50)): 4.2 nM; EC50 [4, 10]: 13000 nM; EC50 [5, 11]: 14000 nM |

From US20230066268A1, “INDAZOLE DERIVATIVES AND METHODS OF USE THEREOF FOR THE TREATMENT OF HERPES VIRUSES” (Merck Sharp & Dohme LLC, priority 2019, published 2023)
